In patent US20230218726A1, “TREATMENT OF VIRAL CONJUNCTIVITIS” (Okogen, Inc., priority 2020, published 2023):

Experiments:
[1] = Chromatographic compatibility analyses (cation exchange, size exclusion, BAK method); type: physicochemical; conditions: no interference in cation exchange, size exclusion and BAK chromatography; PBS pH 7.4
Procedure: A formulation was prepared having 0.03% w/v ranpirnase together with oxymetazoline or brimonidine. The formulations were analyzed by chromatography to verify whether the therapeutic agent interferes with ranpirnase. Several chromatography methods were employed, including cation exchange and size exclusion chromatography, as well as benzalkonium chloride (BAK) analysis.
(§1) For cation exchange chromatography, analysis was performed with the following solutions: diluent (PBS pH 7.4), oxymetazoline HCl (0.5 mg/mL), placebo, and ranpirnase. Oxymetazoline HCl (0.5 mg/mL) solution was prepared in diluent. Both ranpirnase and its placebo were removed from the refrigerator, warmed to room temperature, and vialed into HPLC vials.
as §1, with “size exclusion” for “cation exchange”, “on” for “with”
The benzalkonium chloride (BAK) analysis was performed on the following solutions: diluent (PBS pH 7.4), oxymetazoline HCl (0.05 mg/mL), placebo, and ranpirnase. Oxymetazoline HCl (0.5 mg/mL) solution (10×) was diluted to 0.05 mg/mL in diluent. […]

[2] = system: epidemic keratoconjunctivitis (EKC); conditions: eye drops tested clinically; cited from earlier work
NFκB = conditions: in vitro study; cited from earlier work

Cc1cc(C(C)(C)C)c(O)c(C)c1CC1=NCCN1 [oxymetazoline, 3-(4,5-dihydro-1H-imidazol-2-ylmethyl)-2,4-dimethyl-6-tert-butyl-phenol]
compatibility of formulating with ranpirnase in an ophthalmic formulation [1]: compatibility

Nc1ccn(C[C@@H](CO)OCP(=O)(O)O)c(=O)n1 [cidofovir]
clinical benefit in epidemic keratoconjunctivitis [2]: no definitive benefit was observed

B1: ranpirnase: amphibian ribonuclease from Rana pipiens oocytes/early embryos, RNase A superfamily, about 12 kD (protein, UniProt P22069 1-104, looked up)
Protein P-30: QDWLTFQKKHITNTRDVDCDNIMSTNLFHCKDKNTFIYSRPEPVKAICKGIIASKNVLTTSEFYLSDCNVTSRPCKYKLKKSTNKFCVTCENQAPVHFVGVGSC
translocation of NFκB into the nucleus (NFκB): inhibits translocation of NFκB into the nucleus
